The values that follow come from US20120270884A1, “Methods of Treating Aneurysmal Dilatation, Blood Vessel Wall Weakness and Specifically Abdominal Aortic and Thoracic Aneurysm Using Matrix Metalloprotease-2 Inhibitors” (SYMPHONY EVOLUTION, INC., priority 2009, published 2012).

Assay [1] concerns the target MMP-13 (collagenase-3) (Homo sapiens, UniProt P45452). The assay is described as follows: In vitro metalloprotease inhibition, MMP-13. In kind it is biochemical.
Assay [2] addresses TACE (TNF-alpha converting enzyme, ADAM-17) (Homo sapiens, UniProt P78536). The assay is described as follows: In vitro metalloprotease inhibition, TACE. In kind it is biochemical. The text has this: (§1) Blank cells indicate lack of data only.
Assay [3] has as its target T1, MMP-1 (Fibroblast collagenase) (Homo sapiens, UniProt P03956).
T1 sequence (P03956 100-469): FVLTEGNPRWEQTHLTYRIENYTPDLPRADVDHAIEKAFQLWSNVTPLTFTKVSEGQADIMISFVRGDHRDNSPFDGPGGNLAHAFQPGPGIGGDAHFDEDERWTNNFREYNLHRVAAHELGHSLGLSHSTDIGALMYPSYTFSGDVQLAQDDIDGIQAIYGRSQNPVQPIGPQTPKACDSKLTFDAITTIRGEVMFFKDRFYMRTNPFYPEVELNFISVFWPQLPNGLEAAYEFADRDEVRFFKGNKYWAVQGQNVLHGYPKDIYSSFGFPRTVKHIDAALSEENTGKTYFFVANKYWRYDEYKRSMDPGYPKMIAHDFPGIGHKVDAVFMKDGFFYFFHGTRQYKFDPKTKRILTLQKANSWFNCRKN
The experiment in a line: In vitro metalloprotease inhibition, MMP-1. It counts as biochemical.
Text: as §1

Assay [4] has as its target MMP-3 (Stromelysin-1) (Homo sapiens, UniProt P08254). The assay is described as follows: In vitro metalloprotease inhibition, MMP-3. In kind it is biochemical.
Text: as §1

The target of assay [5] is T2, MMP-2 (72 kDa gelatinase, gelatinase A) (Homo sapiens, UniProt P08253).
T2 sequence (P08253 110-660): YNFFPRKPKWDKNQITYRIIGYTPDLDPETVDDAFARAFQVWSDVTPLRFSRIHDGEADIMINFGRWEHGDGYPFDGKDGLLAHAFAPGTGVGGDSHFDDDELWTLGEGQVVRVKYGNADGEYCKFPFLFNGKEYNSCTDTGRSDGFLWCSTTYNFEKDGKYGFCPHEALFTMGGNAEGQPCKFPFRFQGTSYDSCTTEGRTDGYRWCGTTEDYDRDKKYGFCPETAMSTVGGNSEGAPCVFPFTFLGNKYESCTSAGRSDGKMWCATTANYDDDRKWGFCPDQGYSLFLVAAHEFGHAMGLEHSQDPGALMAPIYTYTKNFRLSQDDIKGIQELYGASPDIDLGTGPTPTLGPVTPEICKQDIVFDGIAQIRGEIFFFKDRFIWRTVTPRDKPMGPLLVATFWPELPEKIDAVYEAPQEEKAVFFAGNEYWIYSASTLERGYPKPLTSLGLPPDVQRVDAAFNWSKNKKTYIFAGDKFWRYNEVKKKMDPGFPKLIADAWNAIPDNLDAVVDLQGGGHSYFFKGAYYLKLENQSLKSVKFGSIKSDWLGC
The assay is described as follows: In vitro metalloprotease inhibition, MMP-2. In kind it is biochemical.

For assay [6], the target named is MMP-9 (92 kDa gelatinase, gelatinase B) (Homo sapiens, UniProt P14780). The assay is described as follows: In vitro metalloprotease inhibition, MMP-9. It counts as biochemical.
MMP-9 (92 kDa gelatinase, gelatinase B), sequence (P14780 94-707, species assumed): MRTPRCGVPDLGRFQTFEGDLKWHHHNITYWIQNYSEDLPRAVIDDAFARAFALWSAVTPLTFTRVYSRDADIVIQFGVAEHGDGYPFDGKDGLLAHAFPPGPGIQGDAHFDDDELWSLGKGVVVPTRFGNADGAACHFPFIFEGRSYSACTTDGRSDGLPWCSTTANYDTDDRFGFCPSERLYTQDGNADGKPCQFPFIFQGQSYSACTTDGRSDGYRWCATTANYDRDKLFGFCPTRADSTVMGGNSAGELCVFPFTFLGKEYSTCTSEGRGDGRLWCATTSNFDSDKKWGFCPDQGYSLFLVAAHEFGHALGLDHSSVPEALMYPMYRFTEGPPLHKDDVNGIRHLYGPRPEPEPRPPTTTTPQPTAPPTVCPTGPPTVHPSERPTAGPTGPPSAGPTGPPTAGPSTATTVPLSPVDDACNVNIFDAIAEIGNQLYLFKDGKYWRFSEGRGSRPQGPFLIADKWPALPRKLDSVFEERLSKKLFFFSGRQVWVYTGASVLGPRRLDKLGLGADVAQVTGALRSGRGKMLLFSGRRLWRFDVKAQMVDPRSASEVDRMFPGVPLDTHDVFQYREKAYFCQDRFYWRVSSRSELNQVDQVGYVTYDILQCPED
Assay [7] addresses MMP-8 (Neutrophil collagenase) (Homo sapiens, UniProt P22894). The experiment in a line: In vitro metalloprotease inhibition, MMP-8. It counts as biochemical.
Assay [8] concerns the target T3, ADAM-10 (UniProt O14672).
T3 sequence (O14672 1-748): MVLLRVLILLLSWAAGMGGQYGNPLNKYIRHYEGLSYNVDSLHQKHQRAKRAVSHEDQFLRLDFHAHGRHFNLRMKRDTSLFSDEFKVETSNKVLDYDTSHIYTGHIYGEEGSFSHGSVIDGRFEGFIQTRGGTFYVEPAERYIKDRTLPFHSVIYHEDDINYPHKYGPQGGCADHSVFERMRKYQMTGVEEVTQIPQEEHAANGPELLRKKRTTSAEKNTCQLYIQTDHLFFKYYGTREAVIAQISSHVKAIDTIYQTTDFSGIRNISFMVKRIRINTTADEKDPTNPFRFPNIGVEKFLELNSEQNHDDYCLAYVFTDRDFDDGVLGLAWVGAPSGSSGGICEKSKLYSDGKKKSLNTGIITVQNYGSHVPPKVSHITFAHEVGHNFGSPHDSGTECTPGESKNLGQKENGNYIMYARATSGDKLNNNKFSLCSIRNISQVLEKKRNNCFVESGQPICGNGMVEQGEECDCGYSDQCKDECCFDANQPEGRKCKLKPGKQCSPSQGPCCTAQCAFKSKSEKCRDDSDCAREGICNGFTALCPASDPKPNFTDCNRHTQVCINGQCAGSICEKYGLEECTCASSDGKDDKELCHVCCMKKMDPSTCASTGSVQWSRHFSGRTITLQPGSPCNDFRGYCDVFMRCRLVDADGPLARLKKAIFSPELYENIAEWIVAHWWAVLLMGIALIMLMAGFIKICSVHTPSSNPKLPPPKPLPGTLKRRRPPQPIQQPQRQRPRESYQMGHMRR
The experiment in a line: ADAM-10 enzyme assay, cleavage of fluorogenic 10-residue peptide. As to conditions: read-out: IC50 ADAM-10; in vitro.
Method: mADAM-10 or hADAM-10 activity was measured as the ability to cleave a 10-residue peptide (DABCYL-Leu-Leu-Ala-Gln-Lys-*-Leu-Arg-Ser-Ser-Arg-EDANS). […] Enzyme was diluted to a final active concentration of 5 nM in Buffer A (50 mM HEPES 8.0, 100 mM NaCl, 1 mM CaCl2 and 0.01% NP-40). Serial dilutions for compounds were performed ranging from 100 μM to 0.5 nM using a Beckman Biomek 2000 in polypropylene plates (Greiner). 20 μl of enzyme solution was added to 10 μl of compound in buffer A, and allowed to incubate for 15 min in 384 well black, Greiner, microtiter plates (#781076). 20 μl of substrate (12.5 μM in Buffer A) was then added, resulting in final reaction conditions of 2 nM ADAM-10, 5 μM substrate, and compound concentrations ranging from 20 uM to 0.1 nM. The reaction was incubated for 2 hr at RT, and fluorescence was measured at Ex355, Em460 on a Wallac Victor 2 fluorescence reader. […] This reaction was incubated for 16 hr at RT and fluorescence was read using identical conditions.

The subject of assay [9] is abdominal aorta of C57/B16 mice after elastase perfusion. The experiment in a line: Elastase-perfusion mouse model of AAA. It counts as in vivo. The text has this:
All mice used in the experiment were commercially obtained C57/B16 inbred strain mice. Throughout the experimental course, mice were allowed free access to food and water. Animals were housed in a controlled animal facility, and all mouse care and treatment occurred under approved protocols.
A total of 89 C57/B16 mice were subjected to transient perfusion of the abdominal aorta according to a protocol known in the art. Briefly, after sedation and preparation, the aorta was approached through a midline laparotomy. The infrarenal aorta was dissected and the diameter was measured under physiologic blood pressure. A segment of infrarenal aorta was isolated and a 5 minute perfusion of this segment was performed through an arteriotomy at 100 mmHg with a solution containing type I porcine pancreatic elastase (PPE 0.16 U/mL). All of the experiments were performed with a single PPE preparation derived from the same commercial source and lot.
Following aortic perfusion the arteriotomy was repaired, the laparotomy was closed and the animal was allowed to completely recover before returning to its standard housing.
Following aortic perfusion, animals were placed into one of 5 treatment groups. […] Three different doses of the agent were used, 50 mg/kg/day (n=17), 125 mg/kg/day (n=17), and 250 mg/kg/day (n=18). There were two mice in each group which died following aortic perfusion, and all others were available for analysis. Control animals (n=18) were similarly treated with daily gavage of the Cremophor diluent only. Of these mice, 16 survived the two weeks following aortic perfusion and underwent final aortic measurements and harvest. […] In this group, 4 mice died prior to the two week harvest, and all others were used in the analysis of aneurysm growth.
Two weeks following elastase perfusion, the mice were again anesthetized; the laparotomy incision was reopened and the final aortic diameter was measured in vivo prior to sacrifice. The animals were humanely sacrificed, and circulating blood and the entire perfused segment of aorta was harvested for RNA extraction, protein extraction or histology.
The aortas from several mice from each experimental group were perfusion fixed with 10% neutral-buffered formalin, removed, and placed in additional formalin for a minimum of 24 hours prior to processing for paraffin embedding. Following paraffin embedding, aortic specimens were cut into 5 μm sections and mounted on glass slides. Each specimen was stained with hematoxylin and eosin to evaluate inflammatory cell infiltration and Accustain® Elastic Stain kit to assess the degree of elastin degradation. Photomicrographs of serial sections were obtained using an Olympus BX60 light microscope equipped with CV12 video capture camera. […]

The structures appear in SMILES notation.

MMP-3 (Stromelysin-1), sequence (P08254 100-477, species assumed): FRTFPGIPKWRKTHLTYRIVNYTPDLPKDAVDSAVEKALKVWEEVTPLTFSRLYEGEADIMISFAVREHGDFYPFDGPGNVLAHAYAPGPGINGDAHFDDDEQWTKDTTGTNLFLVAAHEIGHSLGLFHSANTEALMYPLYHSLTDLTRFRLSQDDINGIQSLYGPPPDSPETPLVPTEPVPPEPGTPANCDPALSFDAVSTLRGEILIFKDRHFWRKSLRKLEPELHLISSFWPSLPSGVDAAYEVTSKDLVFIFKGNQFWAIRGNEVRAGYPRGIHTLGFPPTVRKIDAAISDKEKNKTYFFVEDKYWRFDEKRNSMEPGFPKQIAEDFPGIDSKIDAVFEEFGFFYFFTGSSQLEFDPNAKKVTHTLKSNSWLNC
TACE (TNF-alpha converting enzyme, ADAM-17), sequence (P78536 215-824): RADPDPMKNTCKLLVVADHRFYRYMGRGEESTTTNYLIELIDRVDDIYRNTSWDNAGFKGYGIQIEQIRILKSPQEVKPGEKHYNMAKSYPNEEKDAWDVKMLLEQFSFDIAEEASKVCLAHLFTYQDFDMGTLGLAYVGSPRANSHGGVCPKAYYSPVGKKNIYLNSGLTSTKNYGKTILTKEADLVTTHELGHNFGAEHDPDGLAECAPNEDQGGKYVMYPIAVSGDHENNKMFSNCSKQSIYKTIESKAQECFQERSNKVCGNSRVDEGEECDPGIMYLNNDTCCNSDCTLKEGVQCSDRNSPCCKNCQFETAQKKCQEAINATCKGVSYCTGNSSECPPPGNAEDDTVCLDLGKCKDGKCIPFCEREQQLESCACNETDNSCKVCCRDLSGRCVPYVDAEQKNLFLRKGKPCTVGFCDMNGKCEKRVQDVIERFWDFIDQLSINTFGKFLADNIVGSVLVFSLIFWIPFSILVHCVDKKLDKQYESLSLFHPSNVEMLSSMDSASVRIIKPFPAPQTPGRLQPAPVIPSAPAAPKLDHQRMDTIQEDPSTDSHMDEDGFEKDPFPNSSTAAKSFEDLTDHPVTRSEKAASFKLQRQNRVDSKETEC
MMP-8 (Neutrophil collagenase), sequence (P22894 101-467, species assumed): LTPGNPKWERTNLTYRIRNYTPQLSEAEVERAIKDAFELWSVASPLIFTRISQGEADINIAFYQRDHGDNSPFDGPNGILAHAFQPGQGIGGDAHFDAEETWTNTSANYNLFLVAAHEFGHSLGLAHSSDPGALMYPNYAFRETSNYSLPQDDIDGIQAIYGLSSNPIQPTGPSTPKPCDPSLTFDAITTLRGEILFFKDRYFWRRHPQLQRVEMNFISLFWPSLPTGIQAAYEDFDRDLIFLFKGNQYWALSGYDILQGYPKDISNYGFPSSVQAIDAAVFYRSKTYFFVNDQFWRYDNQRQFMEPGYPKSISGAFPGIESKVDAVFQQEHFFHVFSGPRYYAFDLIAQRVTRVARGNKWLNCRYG

A word on the IC50: it is the concentration that gives 50% inhibition. As to `O=C(NO)[C@H]1CN(C(=O)N2CCOCC2)CCN1S(=O)(=O)c1cc(F)c(Oc2ccc(Cl)cc2)c(F)c1` [Entry 30], the IC50 in assay [1] was less than 50 nM; in assay [2] it was 50 to 1000 nM; in [3] it was 1000 to 20000 nM; in [4], 50 to 1000 nM; in [5] it was less than 50 nM; in assay [6], 50 to 1000 nM. Besides, the IC50 in [7] was less than 50 nM.

In the case of `CN(C)CCS(=O)(=O)N1CCN(S(=O)(=O)c2cc(F)c(Oc3ccc(Cl)cc3)c(F)c2)[C@@H](C(=O)NO)C1` [Entry 54], the half-maximal inhibitory concentration (IC50) is less than 50 nM in assay [1]; less than 50 nM in assay [2]; 50 to 1000 nM in [3]; less than 50 nM in [4]; less than 50 nM in assay [5].

Regarding `O=C(NO)[C@H]1CN(S(=O)(=O)c2cccnc2O)CCN1S(=O)(=O)c1cc(F)c(Oc2ccc(Cl)cc2)c(F)c1` [Entry 45], the IC50 is less than 50 nM in assay [1]; 50 to 1000 nM in assay [2]; 1000 to 20000 nM in [3]; 50 to 1000 nM in assay [4]; less than 50 nM in assay [5].

Take `O=C(NO)[C@H]1CN(C(=O)c2cc(F)c(O)c(F)c2)CCN1S(=O)(=O)c1cc(F)c(Oc2ccc(Cl)cc2)c(F)c1` [Entry 41]: the IC50 was less than 50 nM in assay [1]; less than 50 nM in [8]; 1000 to 20000 nM in assay [3]; less than 50 nM in [4]; less than 50 nM in assay [5].

On to `COCCOC(=O)N1CCN(S(=O)(=O)c2cc(F)c(Oc3ccc(Cl)cc3)c(F)c2)[C@@H](C(=O)NO)C1` [Entry 15], for which the “animals which did not develop aneurysms (% ΔAD not greater than 100%)” value in assay [9] (mice, 250 mg/kg/day daily gavage, 2 weeks, not statistically different than controls) is on record as 12%. Further, in assay [9] (mice, 50, 125, 250 mg/kg/day daily gavage, aorta at harvest, H&E and VVG stain), the “aortic histology: degree of elastin damage and inflammatory cell inflammation” value was “inversely correlated with the dose of the agent administered”. Moreover, the “aortic diameters at harvest versus control animals” value in [9] (mice, all doses (50, 125, 250 mg/kg/day), 2 weeks) is recorded as “significantly smaller than control animals”. In assay [9] (mice, low and intermediate dose groups (50 and 125 mg/kg/day), 2 weeks), the “maximal diameters (% ΔAD) of all animals” value was “greater than 100%”. Further, the IC50 in assay [2] lay within 50 to 1000 nM; in assay [3], 1000 to 20000 nM; in assay [4], 50 to 1000 nM.

Turning to `O=C(NO)[C@H]1CN(C(=O)C(=O)N2CCOCC2)CCN1S(=O)(=O)c1cc(F)c(Oc2ccc(Cl)cc2)c(F)c1` [Entry 31], the IC50 is less than 50 nM in [1]; 50 to 1000 nM in assay [2]; 1000 to 20000 nM in assay [3]; 50 to 1000 nM in assay [4]; less than 50 nM in [5].

In the case of `O=C(NO)[C@H]1CN(S(=O)(=O)Cc2ccncc2)CCN1S(=O)(=O)c1cc(F)c(Oc2ccc(Cl)cc2)c(F)c1` [Entry 34], the IC50 in [1] was less than 50 nM; in [2] it was less than 50 nM; in assay [3], 1000 to 20000 nM; in assay [4], 50 to 1000 nM; in [5], less than 50 nM.
